Laboratory results as given in US6046228A, “Anti-viral pharmaceutical compositions containing saturated 1,2-dithiaheterocyclic compounds and uses thereof” (priority 1999, dated 2000).

How the values were obtained:
HIV-1 ROJO(SI) = experiment: antiviral assay in PBL (p24), clinical isolate ROJO; type: cell-based; conditions: Human immunodeficiency virus 1, cell-free p24
Protocol: (§1) Initial anti-HIV screening was performed with CEM-SS cells and HIV-1RFusing the XTT cytoprotection assay as previously described (Weislow et al., J. National Cancer Inst. 81: 577-586, (1989)). HIV-1 isolates included common laboratory stains (RF, IIIB and MN), as well as a panel of HIV-1 clinical isolates (Cushman et al., J. Med. Chem. 37: 3040-3050, (1994)). The pyridone-resistant HIV-1A17 isolate (Nunberg et al., J. Virol., 65: 4887-4892 (1991)) was obtained from Emilio Emini at Merck Sharpe and Dohme Laboratories. Phytohemagglutinin-stimulated human peripheral blood lymphocytes (PBLs) and fresh monocyte-macrophage (Mono/MF) cultures were prepared and utilized in antiviral assays as previously described (Rice et al., Proc. Nat'l. Academy Science, USA 90: 9721-9724, (1993)); (Cushman et al., J. Med. Chem. 37: 3040-3050, (1994)). EC50 values for these cultures indicate the drug concentration that provided a 50% reduction in viral p24 production. […] The compounds can be synthesized according to the teachings of Singh et al., Sulfur Letters 8: 107-114, (1988). The 4,5-cis-dihydroxy(1,1-dioxy-1,2,-dithiohexane) compound (NSC 624151) has been abbreviated as 624151 for convenience. […]

HIV-1 N119(Nev^R) = experiment: XTT cytopathicity assay, nevirapine-resistant N119; type: cell-based; conditions: CEM-SS
Protocol: as §1

SIV = experiment: XTT cytopathicity assay, other retroviruses; type: cell-based; conditions: Simian immunodeficiency virus
[1] = test system: attachment of HIV-1 to fresh human PBLs; experiment: virus attachment assay, HIV-1RF to PBLs (p24-based); type: cell-based
Protocol: Binding of HIV-1RF to PBLs was measured by a p24-based assay (Rice, et al., Proc. Nat'l. Academy of Science USA 90: 9721-9724, (1993)). Briefly, 5×10^5 PBLs were incubated with a concentrated stock of virus for 30 min. at 37° C. in the absence or presence of various concentrations of 624151, the unbound virus was washed away, and the cell-associated virus was solubilized in 1% Triton X-100, 1% BSA and analyzed by the p24 antigen capture assay as previously described. The binding of gp120to CD4 was analyzed using an antigen capture ELISA. All steps of the assay were carried out according to the manufacturer's protocols.
^.dagger. Attachment of HIV1 to fresh human PBLs, binding of gp120 to […]

Pr55^gag = experiment: immunoblot of viral proteins in U1 cells (Gag precursor processing); type: cell-based, HIV-1; conditions: FIG. 3(B), in words
Protocol: U1 cells latently infected with two copies of HIV-1 proviral DNA per cell (Clous et al., J. Immunol. 142: 431-438, (1989)) were treated with 5 ng/ml tumor necrosis factor-α(TNF-α) for 24 hours to stimulate production of HIV-1 virions, after which various concentrations of 624151 were added to the cultures and incubated for an additional 48 hours. Cultures were analyzed for cell viability by the XTT reduction assay and cells were counted and scored for viability by trypan blue exclusion. Cells pellets were lysed (0.5% Triton X-100, 300 mM NaCl, 50 mM Tris-HCl, pH 7.6, 10 μg/ml each of Leupeptin and aprotinin (Boehringer Mannheim), 1.8 mg/ml iodoacetamide (Sigma Chemical Co., St. Louis, Mo.) and 1.0 mg/ml the protease inhibitor Pefabloc SC (Boehringer Mannheim at 4° C. for 15 min. and then quantitated for viral p24 content by ELISA. Cell-free supernatant samples were collected and analyzed for virus content by p24 ELISA, and infectivity in cultures of 174xCEM cells. Briefly, serial 1/2 dilutions of the supernatant were placed with 5×10^3 174xCEM cells and cultured for 7 days, cell supernatants were analyzed for viral p24 content, and the number of infectious units/ml calculated. In addition, cell free supernatants were centrifuged at 17,000×g for 1 hour at 4° C. to collect virion pellets. […]

O=S1(=O)C[C@H](O)[C@H](O)CS1 (relative stereo) [NSC 624151, cis-1,1-dioxo[1,2]dithiane-4,5-diol]
EC50 (HIV-1 ROJO(SI)): 25 µM
EC50 (HIV-1 N119(Nev^R)): 18 µM
EC50 (SIV): 22 µM
Attachment ([1]; Table 6): NI100μμ
inhibition of attachment of HIV-1 virions to target cells ([1]; in words): did not inhibit
Pr55^gag processing to p41, p24, p9 and p7 proteins (Pr55^gag): prevents processing of precursor proteins to mature viral proteins
Pr55^gag processing to p41, p24, p9 and p7 proteins (Pr55^gag; listed as 624151): decrease in Pr55^gag processing to the p41, p24, p9 and p7 proteins
